# Measured values reported in US12016860B2, “Combination therapies with Cbl-b inhibitor compounds” (Nurix Therapeutics, Inc., priority 2021, dated 2024).
# What was measured:
# BT549 tumor cell line = assay: Caspase 3/7 apoptosis Incucyte assay with paclitaxel, BT549; assay type: cell-based; settings: 0.1 μM compound 23, 0.002 μM paclitaxel, vs 0.05% DMSO, combination also vs single agents p<0.0001
# Method: (§1) BT549 cells were seeded in duplicate into tissue culture treated black-sided, clear-bottom 96-well plates at 5,000 ^cells/well and allowed to adhere and establish for 24 h. Cells were treated with DMSO, compound 23, or Paclitaxel either alone or in combination and were labelled with 1× Essen Bioscience IncuCyte® Caspase-3/7 Green Reagent (final concentration 5 μM). Treated plates were imaged every 2 hours for 48 hours with the IncuCyte® S3 Live-Cell Analysis System. At each timepoint, one image per well was taken in both brightfield and FITC channels on the IncuCyte® S3 Live-Cell Analysis System. Images were analyzed for number of green objects per mm^2 using the IncuCyte S3 v2017A software.
# Using a caspase 3/7 apoptosis Incucyte® assay, the effect of compound 23, paclitaxel and the combination of compound 23 and paclitaxel on tumor cell apoptosis was assessed in the BT549 tumor cell line (a mammary gland carcinoma) in vitro.
# CT26 tumors [1] = assay: CT26 tumor volume in mice, single agent oral dosing; assay type: in vivo; settings: oral administration in mice; colon carcinoma model CT26
# Method: Mice bearing tumors on their left and right flanks were treated from Day 7 to Day 32 with oral compound 23 at 10 mg/kg (blue circles) or 30 mg/kg (red circles) or vehicle (black squares). Volumes at Day 25 are indicated. Statistics were calculated with one-way ANOVA and Dunn's multiple comparisons test **P≤0.01.
# 4T1 tumors = assay: 4T1 metastatic breast carcinoma survival model with primary tumor resection; assay type: in vivo, mice
# Source text: Another in vivo study evaluated the ability of compound 23 treatment, started before the primary tumor resection, to eradicate 4T1 breast carcinoma metastatic disease. The 4T1 triple negative mammary carcinoma is a transplantable tumor cell line that is highly tumorigenic and invasive and, unlike most tumor models, spontaneously metastasizes from a primary tumor growing in the mammary gland to multiple distant sites including lymph nodes, blood, liver, lung, brain, and bone. Tumor cells are easily transplanted into the mammary glands so that the primary tumor grows in the anatomically relevant site. The progressive spread of 4T1 metastases to other organs is very similar to that of human mammary cancer. Animals die from disseminated metastatic disease regardless of resection of the primary tumor (Pulaski et al., 2000, Current Protocols in Immunology 39(1):20.2.1-20.2.16). […] Beginning on Day 7, tumor volumes were measured twice weekly until they reached a mean tumor volume of 145 mm^3 when the primary tumors were resected on Day 14 and 15 (dotted line). Median survival time were calculated for each group and body weights were monitored until the end of the study on Day 140. Body weights were measured twice weekly then once weekly starting Day 47. […] Statistical significance of differences in conditional survival between groups was evaluated using the Log-rank (Mantel-Cox) test. […] Median survival is reported as undefined for the compound 23 group, as survival exceeds 50% at Day 140.
# CT26 tumors [2] = assay: CT26 tumor model with depleting antibodies for CD4+, CD8+ or NK cells; assay type: in vivo, mice; settings: 30 mg/kg PO QD Day 9 to 25
# Method: Tumor volume at Day 25 is indicated. CD8+ T-cell or NK cell depletion abrogates compound 23 activity. Stats were calculated with Mann-Whitney (Vehicle vs. compound 23) or one-way ANOVA with Dunn's multiple comparisons test (compound 23 vs. Depletion groups); (*P≤0.05, **P≤0.01, ****P≤0.0001). The efficacy of compound 23 on tumors is CD8+ T function and on NK cell function.
# [3] = system: BT549 (BRCA wild type) cells; assay: Caspase 3/7 apoptosis Incucyte assay with olaparib, BT549; assay type: cell-based; settings: 1 μM compound 23, 0.05 μM olaparib, vs 0.05% DMSO, combination also vs single agents p<0.0001
# Method: as §1, with “BT549 (BRCA wild type) (A) and DoTc 4510 (BRCA2 mutated) (B) cells were” for “BT549 cells were”, “plates at 5,000^cells/well and allowed” for “plates at 5,000 ^cells/well and allowed”, “treated with indicated concentrations of DMSO, compound” for “treated with DMSO, compound”, “23, or Olaparib (FIGS. 13A and 13B) either alone” for “23, or Paclitaxel either alone”, “hours for 72 hours with” for “hours for 48 hours with”
# Using a caspase 3/7 apoptosis Incucyte assay, the effect of compound 23, PARPi and the combination of compound 23, and PARPi on tumor cell apoptosis was assessed in both BRCA wild type and mutated tumor cell lines in vitro.
smiles,measurement,setting,value
C[C@H]1CCCN(Cc2cc3c(c(C(F)(F)F)c2)CN(c2cccc([C@]4(c5nncn5C)C[C@@H](C)C4)c2)C3=O)C1 [compound 23],tumor cell apoptosis (caspase 3/7),BT549 tumor cell line,did not undergo a significant increase in apoptosis
same,anti-tumor activity,CT26 tumors [1],significant anti-tumor activity
same,median survival time compared to vehicle control,"4T1 tumors; 30 mg/kg daily PO Day 8 to 46, primary tumors resected Day 14 and 15",significantly increased
same,median survival,"4T1 tumors; 30 mg/kg daily PO, study end Day 140",undefined
same,anti-tumor activity,"4T1 tumors; oral administration in mice, metastatic triple negative breast tumor model 4T1",significant anti-tumor activity
same,effect of CD8+ T-cell depletion on compound activity (tumor volume at Day 25),CT26 tumors [2],abrogates
same,effect of NK cell depletion on compound activity (tumor volume at Day 25),CT26 tumors [2]; anti-asialo-GM1,abrogates
same,tumor cell apoptosis (caspase 3/7),[3],did not undergo a significant increase in apoptosis
